Assay: Phase transition temperature of the lipid
Assay type: physicochemical
Details: not given

phase transition temperature (found value) of phospholipid	Molecule
23 °C	CCCCCCCCCCCCCC(=O)OCC(COP(=O)(O)OCC(O)CO)OC(=O)CCCCCCCCCCCCC (centres unmarked) [DMPG, dimyristoylphosphatidylglycerol]
38 °C	CCCCCCCCCCCCCC(=O)OCC(COP(=O)(O)OCC(N)C(=O)O)OC(=O)CCCCCCCCCCCCC (centres unmarked) [DMPS, dimyristoylphosphatidylserine]
41 °C	CCCCCCCCCCCCCCCC(=O)OCC(COP(=O)(O)OCC(O)CO)OC(=O)CCCCCCCCCCCCCCC (centres unmarked) [DPPG, dipalmitoylphosphatidylglycerol]
over 60 °C	CCCCCCCCCCCCCCCCCC(=O)OCC(COP(=O)(O)OCCN)OC(=O)CCCCCCCCCCCCCCCCC (centres unmarked) [DSPE, disteraroylphosphatidylethanolamine]
55 °C	CCCCCCCCCCCCCCCCCC(=O)OCC(COP(=O)(O)OCC(O)CO)OC(=O)CCCCCCCCCCCCCCCCC (centres unmarked) [DSPG, distearoylphosphatidylglycerol]
27.2 °C	CCCCCCCCCCCCCCCC(=O)OC[C@H](COP(=O)([O-])OCC[N+](C)(C)C)OC(=O)CCCCCCCCCCCCC [PMPC, palmitoylmyristoylphosphatidylcholine]
47.4 °C	CCCCCCCCCCCCCCCCCC(=O)O[C@H](COC(=O)CCCCCCCCCCCCCCC)COP(=O)([O-])OCC[N+](C)(C)C [PSPC, palmitoylstearoylphosphatidylcholine]
44.0 °C	CCCCCCCCCCCCCCCCCC(=O)OC[C@H](COP(=O)([O-])OCC[N+](C)(C)C)OC(=O)CCCCCCCCCCCCCCC [SPPC, stearoylpalmitoylphosphatidylcholine]
41 °C	dipalmitoylsphingomyelin [DPSM]
57 °C	distearoylsphingomyelin [DSSM]
35.3 °C	myristoylpalmitoylphosphatidylcholine [MPPC]

The remaining lines, values behind:

Molecule	phase transition temperature (found value) of phospholipid
CCCCCCCCCCCCCC(=O)OC[C@H](COP(=O)([O-])OCC[N+](C)(C)C)OC(=O)CCCCCCCCCCCCC [DMPC, dimyristoylphosphatidylcholine]	23.9 °C
CCCCCCCCCCCCCC(=O)OCC(COP(=O)(O)OCCN)OC(=O)CCCCCCCCCCCCC (centres unmarked) [DMPE, dimyristoylphosphatidylethanolamine]	50 °C
CCCCCCCCCCCCCCCC(=O)OC[C@H](COP(=O)([O-])OCC[N+](C)(C)C)OC(=O)CCCCCCCCCCCCCCC [DPPC, dipalmitoylphosphatidylcholine]	41.4 °C
CCCCCCCCCCCCCCCC(=O)OCC(COP(=O)(O)OCCN)OC(=O)CCCCCCCCCCCCCCC (centres unmarked) [DPPE, dipalmitoylphosphatidylethanolamine]	60 °C
CCCCCCCCCCCCCCCC(=O)OCC(COP(=O)(O)OCC(N)C(=O)O)OC(=O)CCCCCCCCCCCCCCC (centres unmarked) [DPPS, dipalmitoylphosphatidylserine]	51 °C
CCCCCCCCCCCCCCCCCC(=O)OCC(COP(=O)([O-])OCC[N+](C)(C)C)OC(=O)CCCCCCCCCCCCCCCCC (centres unmarked) [DSPC, distearoylphosphatidylcholine]	54.9 °C
CCCCCCCCCCCCCCCCCC(=O)OCC(COP(=O)(O)OCC(N)C(=O)O)OC(=O)CCCCCCCCCCCCCCCCC (centres unmarked) [DSPS, distearoylphosphatidylserine]	over 50 °C

Assay: not given
Details: Biochemica et Biophysica Acta, 859, 246-256 (1986); cited from earlier work

Molecule	phase transition temperature of sulfatide, first value [°C]	phase transition temperature of sulfatide, second value [°C]
sulfatide	34.8	47.3
